What was measured:
Format in all cases: functional
MOLT-4 = experiment: Cytotoxicity against human MOLT4 cells assessed as cell growth at 0.1 uM after 48 hrs by SRB assay relative to control; conditions: MOLT-4, 48 h, read-out: Activity
SK-MEL-28 = experiment: Cytotoxicity against human SK-MEL-28 cells assessed as cell growth at 0.01 uM after 48 hrs by SRB assay relative to control; conditions: SK-MEL-28, 48 h, read-out: Activity
NCI-H460 [1] = experiment: Cytotoxicity against human NCI-H460 cells assessed as cell growth at 0.1 uM after 48 hrs by SRB assay relative to control; conditions: NCI-H460, 48 h, read-out: Activity
T47D = experiment: Cytotoxicity against human T47D cells assessed as cell growth at 0.01 uM after 48 hrs by SRB assay relative to control; conditions: read-out: Activity
SR [2] = experiment: Cytotoxicity against human SR cells after 48 hrs by SRB assay
M14 = experiment: Cytotoxicity against human M14 cells assessed as cell growth at 1 uM after 48 hrs by SRB assay relative to control; conditions: M14, 48 h, read-out: Activity
CAKI-1 [3] = experiment: Cytotoxicity against human Caki1 cells assessed as cell growth at 1 uM after 48 hrs by SRB assay relative to control; conditions: CAKI-1, 48 h, read-out: Activity
UO-31 [4] = experiment: Cytotoxicity against human UO31 cells after 48 hrs by SRB assay; conditions: UO-31, 48 h
NCI-H460 [5] = experiment: Cytotoxicity against human NCI-H460 cells assessed as cell growth at 0.01 uM after 48 hrs by SRB assay relative to control; conditions: NCI-H460, 48 h, read-out: Activity
CAKI-1 [6] = experiment: Cytotoxicity against human Caki1 cells assessed as cell growth at 100 uM after 48 hrs by SRB assay relative to control; conditions: CAKI-1, 48 h, read-out: Activity
IGROV-1 = experiment: Cytotoxicity against human IGROV1 cells assessed as cell growth at 1 uM after 48 hrs by SRB assay relative to control; conditions: IGROV-1, 48 h, read-out: Activity
TK-10 = experiment: Cytotoxicity against human TK10 cells assessed as cell growth at 1 uM after 48 hrs by SRB assay relative to control; conditions: TK-10, 48 h, read-out: Activity
RXF 393 [7] = experiment: Cytotoxicity against human RXF393 cells assessed as cell growth at 100 uM after 48 hrs by SRB assay relative to control; conditions: RXF 393, 48 h, read-out: Activity
LOX IMVI [8] = experiment: Cytotoxicity against human LOXIMVI cells assessed as cell growth at 0.1 uM after 48 hrs by SRB assay relative to control; conditions: read-out: Activity
SR [9] = experiment: Cytotoxicity against human SR cells assessed as cell growth at 100 uM after 48 hrs by SRB assay relative to control; conditions: read-out: Activity
RXF 393 [10] = experiment: Cytotoxicity against human RXF393 cells assessed as cell growth at 0.1 uM after 48 hrs by SRB assay relative to control; conditions: RXF 393, 48 h, read-out: Activity
MDA-MB-231 = experiment: Cytotoxicity against human MDA-MB-231 cells assessed as cell growth at 0.1 uM after 48 hrs by SRB assay relative to control; conditions: MDA-MB-231, 48 h, read-out: Activity
UO-31 [11] = experiment: Cytotoxicity against human UO31 cells assessed as cell growth at 0.01 uM after 48 hrs by SRB assay relative to control; conditions: UO-31, 48 h, read-out: Activity
OVCAR-8 = experiment: Cytotoxicity against human OVCAR8 cells assessed as cell growth at 0.1 uM after 48 hrs by SRB assay relative to control; conditions: OVCAR-8, 48 h, read-out: Activity
UACC-257 = experiment: Cytotoxicity against human UACC257 cells assessed as cell growth at 0.01 uM after 48 hrs by SRB assay relative to control; conditions: UACC-257, 48 h, read-out: Activity
COLO 205 = experiment: Cytotoxicity against human COLO205 cells after 48 hrs by SRB assay; conditions: COLO 205, 48 h
OVCAR-5 [12] = experiment: Cytotoxicity against human OVCAR5 cells assessed as cell growth at 1 uM after 48 hrs by SRB assay relative to control; conditions: OVCAR-5, 48 h, read-out: Activity
NCI-H23 = experiment: Cytotoxicity against human NCI-H23 cells assessed as cell growth at 0.1 uM after 48 hrs by SRB assay relative to control; conditions: NCI-H23, 48 h, read-out: Activity
CCRF-CEM [13] = experiment: Cytotoxicity against human CCRF-CEM cells assessed as cell growth at 1 uM after 48 hrs by SRB assay relative to control; conditions: read-out: Activity
PC-3 [14] = experiment: Cytotoxicity against human PC3 cells assessed as cell growth at 1 uM after 48 hrs by SRB assay relative to control; conditions: PC-3, 48 h, read-out: Activity
SF-268 = experiment: Cytotoxicity against human SF268 cells assessed as cell growth at 100 uM after 48 hrs by SRB assay relative to control; conditions: SF-268, 48 h, read-out: Activity
ACHN = experiment: Cytotoxicity against human ACHN cells assessed as cell growth at 0.01 uM after 48 hrs by SRB assay relative to control; conditions: read-out: Activity
NCI-H522 = experiment: Cytotoxicity against human NCI-H522 cells after 48 hrs by SRB assay; conditions: NCI-H522, 48 h
LOX IMVI [15] = experiment: Cytotoxicity against human LOXIMVI cells assessed as cell growth at 100 uM after 48 hrs by SRB assay relative to control; conditions: read-out: Activity
OVCAR-5 [16] = experiment: Cytotoxicity against human OVCAR5 cells assessed as cell growth at 100 uM after 48 hrs by SRB assay relative to control; conditions: OVCAR-5, 48 h, read-out: Activity
MCF7 = experiment: Cytotoxicity against human MCF7 cells assessed as cell growth at 0.01 uM after 48 hrs by SRB assay relative to control; conditions: MCF7, 48 h, read-out: Activity
PC-3 [17] = experiment: Cytotoxicity against human PC3 cells after 48 hrs by SRB assay; conditions: PC-3, 48 h
UACC-62 [18] = experiment: Cytotoxicity against human UACC62 cells assessed as cell growth at 0.01 uM after 48 hrs by SRB assay relative to control; conditions: UACC-62, 48 h, read-out: Activity
UACC-62 [19] = experiment: Cytotoxicity against human UACC62 cells assessed as cell growth at 1 uM after 48 hrs by SRB assay relative to control; conditions: UACC-62, 48 h, read-out: Activity
KM12 = experiment: Cytotoxicity against human KM12 cells assessed as cell growth at 1 uM after 48 hrs by SRB assay relative to control; conditions: KM12, 48 h, read-out: Activity
MDA-MB-468 [20] = experiment: Cytotoxicity against human MDA-MB-468 cells assessed as cell growth at 100 uM after 48 hrs by SRB assay relative to control; conditions: MDA-MB-468, 48 h, read-out: Activity
CCRF-CEM [21] = experiment: Cytotoxicity against human CCRF-CEM cells assessed as cell growth at 100 uM after 48 hrs by SRB assay relative to control; conditions: read-out: Activity
MDA-MB-468 [22] = experiment: Cytotoxicity against human MDA-MB-468 cells assessed as cell growth at 0.1 uM after 48 hrs by SRB assay relative to control; conditions: MDA-MB-468, 48 h, read-out: Activity

Structure (SMILES): N#CCCCCCn1cc(C2=C(c3cn(CCCCCC#N)c4ccccc34)C(=O)N(O)C2=O)c2ccccc21
- growth at 0.1 µM (MOLT-4): 81%
- growth at 0.01 µM (SK-MEL-28): 102%
- growth at 0.1 µM (NCI-H460 [1]): 104%
- growth at 0.01 µM (T47D): 99%
- GI50 (SR [2]): 3.55 µM
- LC50 (SR [2]): > 100 µM
- TGI (SR [2]): 9.48 µM
- growth at 1 µM (M14): 89%
- growth at 1 µM (CAKI-1 [3]): 93%
- GI50 (UO-31 [4]): 1.76 µM
- LC50 (UO-31 [4]): > 100 µM
- TGI (UO-31 [4]): 90.1 µM
- growth at 0.01 µM (NCI-H460 [5]): 104%
- growth at 100 µM (CAKI-1 [6]): 16%
- growth at 1 µM (IGROV-1): 104%
- growth at 1 µM (TK-10): 107%
- growth at 100 µM (RXF 393 [7]): -25%
- growth at 0.1 µM (LOX IMVI [8]): 90%
- growth at 100 µM (SR [9]): -14%
- growth at 0.1 µM (RXF 393 [10]): 102%
- growth at 0.1 µM (MDA-MB-231): 91%
- growth at 0.01 µM (UO-31 [11]): 97%
- growth at 0.1 µM (OVCAR-8): 99%
- growth at 0.01 µM (UACC-257): 97%
- GI50 (COLO 205): 17.7 µM
- LC50 (COLO 205): > 100 µM
- TGI (COLO 205): 58.7 µM
- growth at 1 µM (OVCAR-5 [12]): 91%
- growth at 0.1 µM (NCI-H23): 90%
- growth at 1 µM (CCRF-CEM [13]): 83%
- growth at 1 µM (PC-3 [14]): 80%
- growth at 100 µM (SF-268): 8%
- growth at 0.01 µM (ACHN): 99%
- GI50 (NCI-H522): 2.59 µM
- LC50 (NCI-H522): > 100 µM
- TGI (NCI-H522): 10.5 µM
- growth at 100 µM (LOX IMVI [15]): -9%
- growth at 100 µM (OVCAR-5 [16]): 18%
- growth at 0.01 µM (MCF7): 91%
- GI50 (PC-3 [17]): 3.92 µM
- LC50 (PC-3 [17]): > 100 µM
- TGI (PC-3 [17]): 74 µM
- growth at 0.01 µM (UACC-62 [18]): 95%
- growth at 1 µM (UACC-62 [19]): 87%
- growth at 1 µM (KM12): 102%
- growth at 100 µM (MDA-MB-468 [20]): -15%
- growth at 100 µM (CCRF-CEM [21]): 3%
- growth at 0.1 µM (MDA-MB-468 [22]): 105%

Structure (SMILES): Cn1cc(C2=C(c3cn(C)c4ncccc34)C(=O)NC2=O)c2ccccc21
- growth at 0.1 µM (MOLT-4): 119%
- growth at 0.01 µM (SK-MEL-28): 97%
- growth at 0.1 µM (NCI-H460 [1]): 97%
- growth at 0.01 µM (T47D): 89%
- GI50 (SR [2]): 1.04 µM
- TGI (SR [2]): 18.4 µM
- growth at 1 µM (M14): 110%
- growth at 1 µM (CAKI-1 [3]): 54%
- GI50 (UO-31 [4]): 2.46 µM
- TGI (UO-31 [4]): 25.3 µM
- growth at 0.01 µM (NCI-H460 [5]): 97%
- growth at 100 µM (CAKI-1 [6]): -10%
- growth at 1 µM (IGROV-1): 117%
- growth at 1 µM (TK-10): 87%
- growth at 100 µM (RXF 393 [7]): -49%
- growth at 0.1 µM (LOX IMVI [8]): 92%
- growth at 100 µM (SR [9]): -21%
- growth at 0.1 µM (RXF 393 [10]): 98%
- growth at 0.1 µM (MDA-MB-231): 104%
- growth at 0.01 µM (UO-31 [11]): 90%
- growth at 0.1 µM (OVCAR-8): 100%
- growth at 0.01 µM (UACC-257): 104%
- GI50 (COLO 205): 1.69 µM
- TGI (COLO 205): 3.71 µM
- growth at 1 µM (OVCAR-5 [12]): 103%
- growth at 0.1 µM (NCI-H23): 95%
- growth at 1 µM (CCRF-CEM [13]): 85%
- growth at 1 µM (PC-3 [14]): 86%
- growth at 100 µM (SF-268): -12%
- growth at 0.01 µM (ACHN): 100%
- GI50 (NCI-H522): 5.05 µM
- TGI (NCI-H522): 32.4 µM
- growth at 100 µM (LOX IMVI [15]): -18%
- growth at 100 µM (OVCAR-5 [16]): -15%
- growth at 0.01 µM (MCF7): 93%
- GI50 (PC-3 [17]): 3.72 µM
- TGI (PC-3 [17]): 52.9 µM
- growth at 0.01 µM (UACC-62 [18]): 97%
- growth at 1 µM (UACC-62 [19]): 89%
- growth at 1 µM (KM12): 82%
- growth at 100 µM (MDA-MB-468 [20]): -56%
- growth at 100 µM (CCRF-CEM [21]): 2%
- growth at 0.1 µM (MDA-MB-468 [22]): 96%

— ChEMBL document CHEMBL4229455, “Synthesis and anticancer activity of novel bisindolylhydroxymaleimide derivatives with potent GSK-3 kinase inhibition” (Bioorg Med Chem, 2018)
